Drawing on patent US11306095B2 (EAST CHINA UNIVERSITY OF SCIENCE AND TECHNOLOGY, priority 2015, dated 2022), this text covers solubility, IC50 and melting point for twelve molecules.

In general, melting point refers to the temperature, or range, at which the solid turns liquid.

A short description of data set [1]: Determination of solubility in water (PBS 20 mM, pH 6.8). Type of data set: physicochemical. As to conditions: PBS buffer, aqueous buffer, thermodynamic from solid; pH 6.8, 20 mM PBS; read-out: Solubility (pH 6.8, g/mL). On the procedure: The suspension was filtered through a 0.22 μm PVDF filter, and then diluted to an appropriate concentration with methanol (v=50%) and PBS (v=50%), and the absorbance was measured by a UV spectrophotometer. About 3 mg of compound was accurately weighed, and methanol was added for preparing a stock solution of 1 mg/mL. The above stock solution was taken and prepared into a solution at concentrations of 0.05, 0.04, 0.03, 0.02 and 0.01 mg/mL, respectively, PBS solution (v=50%) was added and the absorbance value was measured. Concentration c (mg/mL) as horizontal ordinate vs absorbance A as longitudinal coordinate was plotted, and a line was fitted for obtaining a standard curve (correlation coefficient greater than 0.998). The solubility of a compound in water was calculated from the standard curve.

Another data set deals with T1, Wild type EGFR (Homo sapiens, UniProt P00533).
T1 construct: purchased Invitrogen PV3872
In words: Kinase activity test (FRET), wild type EGFR. Type of data set: biochemical. Particulars: wild type EGFR; read-out: Inhibitory activity of EGFR on kinase (IC50, nM) WT. As to the method: (§1) EGFR-TK catalyses transfer of one phosphate group of adenosine triphosphate (ATP) to polypeptide substrate, poly(Glu, Tyr)4:1, which is labeled with two fluorescent groups coumarin and fluorescein.
(§2) 2.5 μL of Test Compounds, 5 μL Kinase/Peptide Substrate Mixture, 2.5 μL ATP Solution were added into a 384-well plate, and the 10 μL of reaction system was shaken for 30 s and incubated at room temperature for 1 h. 5 μL of Development Solution was added and the 15 μL of reaction system was shaken for 30 s, and incubated at room temperature for 1 h. […] The inhibitory rates of the compounds at 7 concentration gradients were determined and the IC50 value for each compound was calculated by Origin 8.0 fitting curve.
(§3) 10 concentration gradients from 5.1×10^−11 mol/L to 1.0×10^−6 mol/L were set for all compounds to be tested.
(§4) Compounds were diluted in DMSO for three times from 5.1×10^−9 M to 1×10^−4 M. 4 μL of the compound was dissolved in 96 μL of water to obtain a 4× compound solution. […] The 10 μL kinase reaction consisted of 2.5 μL compound solution, 5 μL kinase/peptide mix, 2.5 μL ATP solution. […] 5 μL of phosphorylated peptide solution, instead of the kinase/peptide mixture, was used as a 100% phosphorylation control. […] The plates were thoroughly mixed and incubated at room temperature for 1.5 hours. 5 μL of Development Solution was added into each well and then incubated for another 1 hour at room temperature, unphosphorylated peptides were cleaved during this period. Finally, 5 μL Stop Reagent was added to quench the reaction. The plates were measured with EnVision Multilabel Reader (Perkin Elmer). The experimental data were calculated using GraphPad Prism version 4.0. Each experiment was repeated more than 3 times.

The target of another data set is T2, EGFR-L858R/T790M (Homo sapiens, UniProt P00533, L858R/T790M).
T2 construct: purchased Invitrogen PV4879
In words: Kinase activity test (FRET), EGFR T790M/L858R. It counts as biochemical. Particulars: EGFR T790M/L858R; read-out: Inhibitory activity of EGFR on kinase (IC50, nM) T790M/L858R. As to the method: as §1, §2, §3, §4

Data set [2] concerns A431 cells (EGFR wild type). In words: Inhibitory activity on cell proliferation, A431. It counts as cell-based. As to conditions: Homo sapiens, A-431; A431, 72 hours; read-out: Inhibitory activity on proliferation of cells (IC50, μM) A431. As to the method:
(§5) Cell proliferation activity was assessed by MTS assay. Cells were exposed to processing conditions for 72 hours and the number of cells used in each experiment for each cell line was adjusted based on absorbance values (absorbance values at 490 nm, 1.3-2.2). Six concentration gradients (0.1 nM-10 μM) were set for the compounds to be tested, wherein at least 6 sets of parallel controls for each concentration were used.
(§6) H1975, A431 cells were cultured in corresponding media, and cells were passaged at least twice after resuscitation and then used for experiments. Cells at Log phase were trypsinized and resuspended in culture medium. H1975 (1000 cells per well), A431 (2000 cells per well) were seeded in 96-well plates in a volume of 100 μL; and 6 sets of parallel controls and 7 columns were set. The plate was placed in a 37° C. 5% CO2 incubator overnight. Compounds were dissolved in DMSO to a concentration of […], and then the concentration was gradually diluted to 10 μM, 1 μM, 0.1 μM, 0.01 μM, 0.001 μM, 0.0001 μM per liter, respectively. 2 μL of the compound solution was added to 998 μL of medium, and the mixture was thoroughly mixed. 100 μL of the mixture was added to a 96-well plate. […] After culturing for 68 hours, 20 μL of MTT (5 mg/mL) was added. After 4 hours, the supernatant was discarded and 150 μL of DMSO was added. After shaking for 10 minutes, the plate was read with Synergy HT (Bio TeK) (OD490). Data were calculated using GraphPad Prism version 4.0 and IC50 values were obtained using a non-linear regression model of dose response curve.

Data set [3] concerns H1975 cells (EGFR L858R/T790M). In words: Inhibitory activity on cell proliferation, H1975. It counts as cell-based. Particulars: Homo sapiens, NCI-H1975; H1975, 72 hours; read-out: Inhibitory activity on proliferation of cells (IC50, μM) H1975. As to the method:
as §5, §6

Each structure is given as a SMILES string. In brackets after ≈: the same amount, converted by molar mass.

T1 sequence (P00533 25-1210): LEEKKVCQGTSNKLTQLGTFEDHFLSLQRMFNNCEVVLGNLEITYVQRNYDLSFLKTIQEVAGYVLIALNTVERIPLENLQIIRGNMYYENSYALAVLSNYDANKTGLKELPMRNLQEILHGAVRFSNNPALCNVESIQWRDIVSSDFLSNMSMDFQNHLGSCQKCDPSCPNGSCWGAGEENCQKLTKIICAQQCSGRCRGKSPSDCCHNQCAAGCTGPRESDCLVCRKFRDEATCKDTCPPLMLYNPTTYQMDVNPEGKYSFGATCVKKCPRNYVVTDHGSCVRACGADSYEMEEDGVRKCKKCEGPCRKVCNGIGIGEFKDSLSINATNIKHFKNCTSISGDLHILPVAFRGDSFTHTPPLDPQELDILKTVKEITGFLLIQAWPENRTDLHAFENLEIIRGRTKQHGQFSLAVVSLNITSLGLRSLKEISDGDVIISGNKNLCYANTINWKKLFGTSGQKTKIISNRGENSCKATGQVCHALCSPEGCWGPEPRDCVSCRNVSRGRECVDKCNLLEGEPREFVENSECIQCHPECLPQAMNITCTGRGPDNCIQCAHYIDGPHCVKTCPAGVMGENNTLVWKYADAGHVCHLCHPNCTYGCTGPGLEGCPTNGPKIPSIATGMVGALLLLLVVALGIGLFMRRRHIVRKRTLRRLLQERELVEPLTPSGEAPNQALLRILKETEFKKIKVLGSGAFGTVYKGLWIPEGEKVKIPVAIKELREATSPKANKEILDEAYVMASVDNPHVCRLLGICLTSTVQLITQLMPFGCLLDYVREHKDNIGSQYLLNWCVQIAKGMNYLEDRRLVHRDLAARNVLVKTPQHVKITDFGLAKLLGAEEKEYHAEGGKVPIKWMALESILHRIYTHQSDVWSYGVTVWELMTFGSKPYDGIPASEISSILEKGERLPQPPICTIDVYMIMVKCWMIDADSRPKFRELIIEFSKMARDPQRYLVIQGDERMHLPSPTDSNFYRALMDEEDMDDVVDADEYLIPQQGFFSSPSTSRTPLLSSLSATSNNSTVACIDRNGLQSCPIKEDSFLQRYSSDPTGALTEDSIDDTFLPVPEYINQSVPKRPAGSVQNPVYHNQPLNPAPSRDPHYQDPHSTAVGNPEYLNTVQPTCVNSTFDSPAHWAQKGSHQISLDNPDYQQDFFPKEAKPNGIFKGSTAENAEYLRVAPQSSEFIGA
T2 sequence (P00533 25-1210 T790M/L858R): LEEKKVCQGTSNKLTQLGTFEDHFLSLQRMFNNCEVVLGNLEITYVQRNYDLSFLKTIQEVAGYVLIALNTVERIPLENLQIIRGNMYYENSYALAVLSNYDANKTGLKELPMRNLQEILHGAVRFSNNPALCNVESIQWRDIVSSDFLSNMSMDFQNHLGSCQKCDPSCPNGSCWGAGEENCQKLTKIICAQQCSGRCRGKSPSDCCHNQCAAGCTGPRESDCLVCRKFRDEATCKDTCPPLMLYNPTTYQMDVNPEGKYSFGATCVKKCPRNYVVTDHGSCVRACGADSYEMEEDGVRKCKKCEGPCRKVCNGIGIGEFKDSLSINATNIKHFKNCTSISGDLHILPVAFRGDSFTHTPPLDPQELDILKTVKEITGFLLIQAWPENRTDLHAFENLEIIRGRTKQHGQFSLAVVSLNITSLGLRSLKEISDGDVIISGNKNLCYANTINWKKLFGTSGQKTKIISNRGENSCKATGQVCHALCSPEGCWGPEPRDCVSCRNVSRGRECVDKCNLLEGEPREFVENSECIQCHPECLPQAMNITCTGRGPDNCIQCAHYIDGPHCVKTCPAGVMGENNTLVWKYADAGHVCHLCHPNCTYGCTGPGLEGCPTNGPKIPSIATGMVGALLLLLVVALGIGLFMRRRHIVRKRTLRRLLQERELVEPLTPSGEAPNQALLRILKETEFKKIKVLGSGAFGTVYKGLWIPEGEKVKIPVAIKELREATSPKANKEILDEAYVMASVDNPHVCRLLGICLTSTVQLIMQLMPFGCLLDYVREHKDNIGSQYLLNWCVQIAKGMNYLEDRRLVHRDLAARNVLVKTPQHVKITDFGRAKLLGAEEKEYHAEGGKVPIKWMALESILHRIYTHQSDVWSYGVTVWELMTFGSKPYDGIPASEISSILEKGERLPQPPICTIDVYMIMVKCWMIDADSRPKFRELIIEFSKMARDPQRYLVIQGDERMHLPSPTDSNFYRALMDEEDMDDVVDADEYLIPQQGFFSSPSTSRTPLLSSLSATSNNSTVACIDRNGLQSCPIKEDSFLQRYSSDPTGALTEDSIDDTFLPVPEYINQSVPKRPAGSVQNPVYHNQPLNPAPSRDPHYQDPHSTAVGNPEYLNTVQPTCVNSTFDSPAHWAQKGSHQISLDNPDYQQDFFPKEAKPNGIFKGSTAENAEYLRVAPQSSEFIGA

For the molecule `C=CC(=O)Nc1cccc(-n2c(=O)cnc3cnc(Nc4ccc(N5CCN(C)CC5)cc4OCOC)nc32)c1` [Compound 9, N-(3-(2-((2-(methoxymethoxy)-4-(4-methyl-1-piperazinyl)phenyl)amino)-7-oxo-8(7H)-pteridinyl)phenyl)acrylamide], the melting point was 187.3 to 188.1 °C. Moreover, in data set [1], the solubility stood at 163 µg/mL (≈ 300 µM). Also, the IC50 on Wild type EGFR came out at 23.4 nM. Besides, at EGFR-L858R/T790M, the IC50 was 20.8 nM. For the same molecule, the IC50 in data set [2] turned out to be 2.81 µM. Also, the IC50 in data set [3] turned out to be 1.04 µM.
Turning to `Cc1cc(Nc2ncc3nc(-c4ccccc4)c(=O)n([C@H]4CCN(C(=O)/C=C/CN(C)C)C4)c3n2)ccc1N1CCN(C)CC1` [Compound 29, (S,E)-8-(1-(4-(dimethylamino)-2-butenoyl)-3-pyrrolidinyl)-2-((3-methyl-4-(4-methyl-1-piperazinyl)phenyl)amino)-6-phenyl-7(8H)-pteridinone], in data set [1], the solubility worked out at 438 µg/mL (≈ 720 µM). The IC50 was 177 nM at Wild type EGFR, 791 nM at EGFR-L858R/T790M, 1.6 µM in data set [2] and 3.09 µM in data set [3].
For `COc1cc(N2CCN(C)CC2)ccc1Nc1ncc2ncc(=O)n(C3CCN(C(=O)/C=C/CN(C)C)CC3)c2n1` [Compound 30, (E)-8-(1-(4-(dimethylamino)-2-butenoyl)-4-piperidinyl)-2-((2-methoxy-4-(4-methyl-1-piperazinyl)phenyl)amino)-7(8H)pteridinone], the melting point is 157.3 to 157.6 °C. Besides, the solubility in data set [1] was greater than 10 µg/mL. The IC50 at Wild type EGFR was greater than 1000 nM. In addition, the IC50 on EGFR-L858R/T790M was greater than 1000 nM. Besides, the IC50 in data set [2] was greater than 10 µM. Besides, the IC50 in data set [3] is 8.69 µM.
Regarding `COc1cc(N2CCN(C)CC2)ccc1Nc1ncc2nc(-c3ccccc3)c(=O)n([C@H]3CCN(C(=O)/C=C/CN(C)C)C3)c2n1` [Compound 31], the melting point fell in the range of 253.1 to 254 °C. The solubility in data set [1] came out at 63.3 µg/mL (≈ 101 µM). Moreover, the IC50 on Wild type EGFR worked out at 522 nM. The IC50 on EGFR-L858R/T790M was 9 nM. Moreover, the IC50 in data set [2] was greater than 10 µM. Moreover, the IC50 in data set [3] was 2.16 µM.
For `C=CC(=O)Nc1cccc(-n2c(=O)c(C(C)C)nc3cnc(Nc4ccc(N5CCN(C)CC5)c(OC)c4)nc32)c1` [Compound 32, N-(3-(6-isopropyl-2-((3-methoxy-4-(4-methyl-1-piperazinyl)phenyl)amino)-7-oxo-8(7H)pteridinyl)phenyl)acrylamide], the melting point was 249 to 249.5 °C. In addition, the solubility in data set [1] was less than 10 µg/mL. Moreover, the IC50 on Wild type EGFR was 1.3 nM. The IC50 at EGFR-L858R/T790M stood at 7.1 nM. In addition, in data set [2], the IC50 was 2.75 µM. The IC50 in data set [3] is 0.033 µM.
`C=CC(=O)Nc1cccc(-n2c(=O)c(C(F)(F)F)nc3cnc(Nc4ccc(N5CCN(C)CC5)c(OC)c4)nc32)c1` [Compound 33, N-(3-(2-((3-methoxy-4-(4-methyl-1-piperazinyl)phenyl)amino)-7-oxo-6-(trifluoromethyl)-8(7H)-pteridinyl)phenyl)acrylamide] had a melting point greater than 300 °C. Moreover, the solubility in data set [1] was 24.5 µg/mL (≈ 42.2 µM). Also, the IC50 at Wild type EGFR was 33 nM. The IC50 on EGFR-L858R/T790M amounted to 1.3 nM. Besides, in data set [2], the IC50 was 3.68 µM. Moreover, the IC50 in data set [3] turned out to be 0.23 µM.
In turn, `C=CC(=O)N1CC[C@H](n2c(=O)cnc3cnc(Nc4ccc(N5CCN(C)CC5)c(C)c4)nc32)C1` [Compound 34, (S)-8-(1-acryloyl-3-pyrrolidinyl)-2-((3-methyl-4-(4-methyl-1-piperazinyl)phenyl)amino)-7(8H)pteridinone] gave a melting point of 215.5 to 215.7 °C. Further, in data set [1], the solubility turned out to be 223 µg/mL (≈ 470 µM). In addition, the IC50 on Wild type EGFR worked out at 86.7 nM. Further, on EGFR-L858R/T790M, the IC50 amounted to 896 nM. The IC50 in data set [2] was greater than 10 µM. Also, the IC50 in data set [3] was 0.831 µM.
The molecule `C=CC(=O)N1CC[C@H](n2c(=O)c(-c3ccccc3)nc3cnc(Nc4ccc(N5CCN(C)CC5)c(OC)c4)nc32)C1` [Compound 35, (S)-8-(1-acryloyl-30pyrrolidinyl)-2-((3-methoxy-4(4-methyl-1-piperazinyl)phenyl)amino)-6-phenyl-7(8H)pteridinone] yielded a melting point of 208.3 to 208.8 °C. Also, the solubility in data set [1] stood at 63.3 µg/mL (≈ 112 µM). The IC50 at Wild type EGFR was 20.1 nM. The IC50 on EGFR-L858R/T790M was determined as 17.5 nM. Further, in data set [2], the IC50 is 0.225 µM. For the same molecule, in data set [3], the IC50 is 0.378 µM.
`Cc1cc(Nc2ncc3nc(C(C)C)c(=O)n([C@H]4CCN(C(=O)/C=C/CN(C)C)C4)c3n2)ccc1N1CCN(C)CC1` [Compound 36, (S,E)-8-(1-(4-(dimethylamino)-2-butenoyl)3-pyrrolidinyl)-2-((3-methyl-4-(4-methyl-1-piperazinyl)phenyl)amino)-6-isopropyl-7(8H)pteridinone] showed a melting point of 159.9 to 160.7 °C. The solubility in data set [1] is 737 µg/mL (≈ 1280 µM). Moreover, the IC50 on Wild type EGFR is greater than 1000 nM. The IC50 at EGFR-L858R/T790M was greater than 1000 nM. In data set [2], the IC50 is 9.6 µM. Moreover, the IC50 in data set [3] was 2.2 µM.
Turning to `C=CC(=O)Nc1cccc(-n2c(=O)c(C(C)C)nc3cnc(Nc4ccc(N5CCN(C)CC5)cc4OC)nc32)c1` [Compound 37, N-(3-(6-isopropyl-2-((2-methoxy-4-(4-methyl-1-piperazinyl)phenyl)amino)-7-oxo-8(7H)pteridinyl)phenyl)acrylamide], the solubility in data set [1] is less than 10 µg/mL. Also, the IC50 on Wild type EGFR amounted to 26 nM; at EGFR-L858R/T790M it was 4.9 nM; in data set [2], 3.23 µM; in data set [3], 0.074 µM.
Regarding `C=CC(=O)Nc1cccc(-n2c(=O)c(C3CCCCC3)nc3cnc(Nc4ccc(N5CCN(C)CC5)cc4OC)nc32)c1` [Compound 43, N-(3-(6-cyclohexyl-2-((2-methoxy-4-(4-methyl-1-piperazinyl)phenyl)amino)-7-oxo-8(7H)pteridinyl)phenyl)acrylamide], the solubility in data set [1] is less than 10 µg/mL. Further, the IC50 was 7.7 nM on Wild type EGFR, 0.6 nM at EGFR-L858R/T790M, 0.433 µM in data set [2] and 0.112 µM in data set [3].
As to `C=CC(=O)N1CCC(n2c(=O)c(-c3ccccc3)nc3cnc(Nc4ccc(N5CCN(C)CC5)c(C)c4)nc32)C1` (centres unmarked) [Compound 49, 8-(1-acryloyl-3-pyrrolidinyl)-2-((3-methyl-4-(4-methyl-1-piperazinyl)phenyl)amino)-6-phenyl-7(8H)pteridinone], the solubility in data set [1] is less than 10 µg/mL. For the same molecule, the IC50 came to 19.2 nM at Wild type EGFR, 14.2 nM on EGFR-L858R/T790M, 0.287 µM in data set [2] and 0.368 µM in data set [3].
